# Earlier results in patent publication US8067367B2, “Methods of increasing platelet and hematopoietic stem cell production” (Janssen Pharmaceutica, N.V., priority 2002, dated 2011).
# Key:
# CD34+ cells = settings: normal volunteers
# CD34+ stem cells = settings: rhTPO with G-CSF; pilot study
# [1] = system: HSCs in adult bone marrow; settings: exogenously added TPO; after bone marrow transplantation
# [2] = single dose of TPO, cancer patients
substance,measurement,setting,value
Thrombopoietin [TPO],CD34+ cells in the peripheral blood,CD34+ cells,16×10^3 cells/ml
same,mobilization and apheresis yields of CD34+ stem cells in response to G-CSF,CD34+ stem cells,able to enhance the mobilization and apheresis yields of CD34+ stem cells
same,HSC expansion defect in tpo−/− mice,[1],rescued this defect
same,increase in circulating CD34+ cells,"circulating CD34+ cells; 3-7 days after a single dose of TPO, cancer patients with otherwise normal hematopoiesis",6 fold
same,increase of committed megakaryocytic subfraction (CD34+CD41+CD14−),circulating CD34+ cells; [2],~15 fold
same,increase of stem cell enriched subfraction (CD34+ Thy+Lin−),circulating CD34+ cells; [2],~9 fold
